According to patent publication US20220339271A1, “MR1 RESTRICTED T CELL RECEPTORS FOR CANCER IMMUNOTHERAPY” (Universität Basel, priority 2018, published 2022):

Tests used:
Type in all cases: cell-based, human
[1] = test system: control MAIT cells; assay: E. coli stimulation of control MAIT cells in the presence of 6-FP or Ac-6-FP; conditions: for E. coli stimulation of control MAIT cells in the presence of the ligand: A375-MR1 target cells; for inhibition of activation of MAIT cells: target A375 cells expressing mutant MR1 (A375-MR1 K34A)
Protocol: (§1) T cell activation assays. MR1-restricted T cells (5×10^4/well unless otherwise indicated) were co-cultured with indicated target cells (5×10^4/well) in 200 μl total volume in duplicates or triplicates. T cells were cultured with indicated APCs for 24 h. […] E. coli lysate was prepared from the DH5α strain (Invitrogen) grown in LB medium and collected during exponential growth. Bacterial cells were washed twice in PBS and then lysed by sonication. After centrifugation (15,000 g for 15 min), the supernatant was collected, dried, and stored at −70° C. APCs were pulsed for 4 h with E. coli lysate equivalent to 10^8 CFU/ml (unless otherwise indicated) before addition of T cells. In some experiments, APCs were pre-incubated with 6-FP or Ac-6-FP (Schircks Laboratories) for 4 h before co-culture with T cells. In control experiments with TCR γδ cells expressing TCR Vγ9 and Vδ2 chains, the APCs were first treated for 6 h with zoledronate (10 μg/ml) prior to T cell addition. Activation experiments with plate-bound recombinant human β2m-MR1-Fc were performed by coating β2m-MR1-Fc onto 96 well plates (4 μg/ml) and loading with cartridge-purified cell lysates for 4 h at 37° C. before washing twice and adding T cells. Supernatants were collected after 24 h and IFN-γ or GM-CSF were assessed by ELISA. Multiple cytokines and chemokines in cell culture supernatants were analyzed using the Milliplex MAP human cytokine/chemokine magnetic bead panel—Premixed 41 plex (HCYTMAG-60K-PX41; Merck Millipore) according to the manufacturer's instructions. Samples were acquired on a Flexmap 3D system (Merck Millipore) and Milliplex analyst software was used to determine mean fluorescence intensity and analyte concentration.

[2] = test system: TCR Vγ9Vδ2 clone G2B9; assay: Control TCR γδ cell response to zoledronate-treated APCs in the presence of 6-FP or Ac-6-FP
Protocol: as §1, with “In control experiments with TCR γδ cells expressing TCR Vγ9 and Vδ2 chains, the APCs were first treated for 6 h with zoledronate (10 μg/ml) prior to T cell addition. Activation experiments with plate-bound recombinant human β2m-MR1-Fc were performed by coating β2m-MR1-Fc onto 96 well plates (4 μg/ml) and loading with cartridge-purified cell lysates for 4 h at 37° C. before washing twice and adding T cells.” left out

[3] = test system: MR1T cell clones; assay: MR1T cell clone stimulation by A375-MR1 cells in the presence of 6-FP or Ac-6-FP; conditions: for MR1T cell stimulation in the presence of the ligand: A375-MR1 target cells; for inhibition of activation of MR1T cells: target A375 cells expressing mutant MR1 (A375-MR1 K34A)
Protocol: as §1

[4] = test system: MAIT cell clone SMC3; assay: Stimulation of control MAIT cell clone by RL-6,7-diMe-loaded THP-1 cells
Protocol: T cell activation assays. MR1-restricted T cells (5×10^4/well unless otherwise indicated) were co-cultured with indicated target cells (5×10^4/well) in 200 μl total volume in duplicates or triplicates. T cells were cultured with indicated APCs for 24 h. In some experiments, anti-MR1 mAbs (clone 26.5) or mouse IgG2a isotype control mAbs (both at 30 μg/ml) were added and incubated for 30 min prior to the addition of T cells. E. coli lysate was prepared from the DH5α strain (Invitrogen) grown in LB medium and collected during exponential growth. Bacterial cells were washed twice in PBS and then lysed by sonication. After centrifugation (15,000 g for 15 min), the supernatant was collected, dried, and stored at −70° C. APCs were pulsed for 4 h with E. coli lysate equivalent to 10^8 CFU/ml (unless otherwise indicated) before addition of T cells. […] Supernatants were collected after 24 h and IFN-γ or GM-CSF were assessed by ELISA. Multiple cytokines and chemokines in cell culture supernatants were analyzed using the Milliplex MAP human cytokine/chemokine magnetic bead panel—Premixed 41 plex (HCYTMAG-60K-PX41; Merck Millipore) according to the manufacturer's instructions. Samples were acquired on a Flexmap 3D system (Merck Millipore) and Milliplex analyst software was used to determine mean fluorescence intensity and analyte concentration.

Row | SMILES | E. coli stimulation of control MAIT cells in the presence of the ligand [1] | inhibition of activation of MAIT cells [1] | control TCR γδ cell responses to cognate antigen presented by the same APCs (compound toxicity) [2] | MR1T cell stimulation in the presence of the ligand [3] | inhibition of activation of MR1T cells [3] | stimulation of control MAIT cell clone [4]
1 | CC(=O)Nc1nc2ncc(C=O)nc2c(=O)[nH]1 [Ac-6-FP, acetyl-6-formyl pterin] | impaired | failed to inhibit | did not disrupt | impaired | failed to inhibit | –
2 | Nc1nc2ncc(C=O)nc2c(=O)[nH]1 [Clone 6-FP, 6-formyl pterin] | impaired | failed to inhibit | did not disrupt | impaired | failed to inhibit | –
3 | Cc1nc2c(=O)[nH]c(=O)nc-2n(C[C@H](O)[C@H](O)[C@H](O)CO)c1C [RL-6,7-diMe, 6,7-dimethyl-8-D-ribityllumazine] | – | – | – | – | – | stimulated in MR1-dependent manner
